pKi: −log10 of the molar value. Read-outs that look alike come from different tables or passages of the source.
Biological target: T1, chimeric human H3 receptor (Homo sapiens, UniProt Q9Y5N1, E19D)
T1 construct: made in house; host or cells: Sf9 insect cells (baculovirus infection); P2 membrane preparation
Assay: Chimeric human H3 receptor GTP binding assay (agonist-stimulated GTP-gamma35S binding, Example 7)
Assay type: biochemical
Conditions: read-out: Ki
Outline: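 Sf9 membranes co-expressing the chimeric receptor and heterotrimeric G-protein subunits, 35 μg protein per tube, in pH 7.4 Tris buffer with 10 μM GDP. Test compounds at 10^−10 to 10^−6 M with 1 μM histamine, 60 min at room temperature. Filter-bound GTP-gamma^35S read by scintillation; IC50 from non-linear regression of dose-response curves.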

[1] = Table II, assay of Example 7, "*" in Ki
[2] = Table II "Ki", symbol "*": Ki in the assay of Example 7
[3] = assay of Example 7, symbol * in column headed Ki of Table II
[4] = assay of Example 7, "*" in Ki of Table II
[5] = Table II, "*" in Ki, assay of Example 7
[6] = "*" in Ki of Table II, assay of Example 7

T1 sequence (Q9Y5N1 with tags, fused parts or gaps E19D): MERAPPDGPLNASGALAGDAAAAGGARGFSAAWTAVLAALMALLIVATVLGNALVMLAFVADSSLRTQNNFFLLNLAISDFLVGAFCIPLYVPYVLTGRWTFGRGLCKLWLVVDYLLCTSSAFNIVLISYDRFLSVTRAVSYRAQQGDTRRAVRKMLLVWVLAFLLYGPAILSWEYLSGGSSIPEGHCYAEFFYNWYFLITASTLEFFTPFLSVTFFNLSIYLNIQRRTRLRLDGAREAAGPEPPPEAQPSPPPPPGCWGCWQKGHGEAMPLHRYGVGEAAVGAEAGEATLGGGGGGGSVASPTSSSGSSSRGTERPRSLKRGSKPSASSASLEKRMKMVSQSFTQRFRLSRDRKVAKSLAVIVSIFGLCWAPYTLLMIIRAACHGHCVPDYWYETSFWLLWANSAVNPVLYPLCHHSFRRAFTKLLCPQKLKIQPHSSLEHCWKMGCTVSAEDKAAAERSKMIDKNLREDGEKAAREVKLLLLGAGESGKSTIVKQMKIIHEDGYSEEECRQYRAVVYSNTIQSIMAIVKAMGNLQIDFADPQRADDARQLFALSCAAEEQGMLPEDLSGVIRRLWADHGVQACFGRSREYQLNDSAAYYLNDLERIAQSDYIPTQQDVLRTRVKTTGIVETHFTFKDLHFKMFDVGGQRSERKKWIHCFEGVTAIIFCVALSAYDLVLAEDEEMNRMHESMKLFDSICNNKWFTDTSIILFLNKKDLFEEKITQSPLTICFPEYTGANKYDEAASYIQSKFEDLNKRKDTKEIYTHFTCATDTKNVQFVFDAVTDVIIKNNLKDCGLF

Compound `COc1cccc(OC)c1-c1cnc(N2CCN(CC(=O)N3CCN(C4CCC4)CC3)CC2)cn1` [Compound 970, 2-{4-[2-(4-cyclobutylpiperazin-1-yl)-2-oxoethyl]piperazin-1-yl}-5-(2,6-dimethoxyphenyl) pyrazine] has a pKi [1] of over 6.00.
`COc1ccc(F)cc1-c1cnc(N2CCN(CC(=O)N3CCN(C4CCC4)CC3)CC2)cn1` [Compound 957, 2-{4-[2-(4-cyclobutylpiperazin-1-yl)-2-oxoethyl]piperazin-1-yl}-5-(5-fluoro-2-methoxyphenyl)pyrazine] showed a pKi [1] of over 6.00.
`CCC(C)N1CCN(C(=O)CN2CCN(c3ccc([N+](=O)[O-])cc3)CC2)CC1` (stereo not shown) [Compound 883, 1-sec-butyl-4-{[4-(4-nitrophenyl)piperazin-1-yl]acetyl}piperazine] gave a pKi [2] of over 6.00.
With `O=C(CN1CCN(c2ccc(-c3ccc(F)c(Cl)c3)nn2)CC1)N1CCN(C2CCC2)CC1` [Compound 987, 3-(3-chloro-4-fluorophenyl)-6-{4-[2-(4-cyclobutylpiperazin-1-yl)-2-oxoethyl]piperazin-1-yl}pyridazine] the pKi [1] was over 6.00.
For `O=C(Cc1cc(Cl)ccc1Br)N1CCN(CC(=O)N2CCN(C3CCC3)CC2)CC1` [Compound 379, 1-[(2-bromo-5-chlorophenyl)acetyl]-4-[2-(4-cyclobutylpiperazin-1-yl)-2-oxoethyl]piperazine], the pKi [3] was over 6.00.
`CC1CN(c2ccc(C(F)(F)F)cn2)CCN1CC(=O)N1CCN(C2CCCC2)CC1` (stereo not shown) [Compound 442, 1-[2-(4-cyclopentylpiperazin-1-yl)-2-oxoethyl]-2-methyl-4-[5-(trifluoromethyl)pyridin-2-yl]piperazine] gave a pKi [3] of over 6.00.
With `CC(C)N1CCN(C(=O)CN2CCN(c3ccc(C(F)(F)F)cc3)CC2)CC1` [Compound 845, 1-isopropyl-4-({4-[4-(trifluoromethyl)phenyl]piperazin-1-yl}acetyl)piperazine] the pKi [2] was over 6.00.
`O=C(CN1CCN(c2ccc(-c3ccccc3Cl)cc2)CC1)N1CCN(C2CCC2)CC1` [Compound 278, 1-(2′-chlorobiphenyl-4-yl)-4-[2-(4-cyclobutylpiperazin-1-yl)-2-oxoethyl]piperazine] showed a pKi [3] of over 6.00.
`N#Cc1ccc(N2CCN(CC(=O)N3CCN(C4CCC4)CC3)CC2)cc1` [Compound 1121, 4-{1-[2-(4-cyclobutylpiperazin-1-yl)-2-oxoethyl]piperazin-1-yl}benzonitrile] was tested, and the pKi [1] was over 6.00.
For `CC(=O)c1ccc(N2CCN(CC(=O)N3CCN(C4CCC4)CC3)CC2)nc1` [Compound 371, 1-(6-{4-[2-(4-cyclobutylpiperazin-1-yl)-2-oxoethyl]piperazin-1-yl}pyridin-3-yl)ethanone], the pKi [3] was over 6.00.
`O=C(c1ccccc1)c1ccc(N2CCN(CC(=O)N3CCN(C4CCCC4)CC3)CC2)cc1` [Compound 251, (4-{4-[2-(4-cyclopentylpiperazin-1-yl)-2-oxoethyl]piperazin-1-yl}phenyl)(phenyl)methanone] was tested, and the pKi [3] was over 6.00.
`COc1ccc(C(C)C)cc1-c1ccc(N2CCN(CC(=O)N3CCN(C4CCC4)CC3)CC2)nn1` [Compound 1040, 3-{4-[2-(4-cyclobutylpiperazin-1-yl)-2-oxoethyl]piperazin-1-yl}-6-(5-isopropyl-2-methoxyphenyl) pyridazine] was tested, and the pKi [1] was over 6.00.
`COCCN(C(=O)c1cccc(N2CCN(CC(=O)N3CCN(C4CCC4)CC3)CC2)c1)C(C)C` [Compound 1070, 3-{4-[2-(4-cyclobutylpiperazin-1-yl)-2-oxoethyl]piperazin-1-yl}-N-isopropyl-N-(2-methoxyethyl)benzamide] showed a pKi [1] of over 6.00.
Compound `CCCCc1ccc(-c2ccc(N3CCN(CC(=O)N4CCN(C5CCC5)CC4)CC3)nn2)cc1` [Compound 989, 3-(4-butylphenyl)-6-{4-[2-(4-cyclobutylpiperazin-1-yl)-2-oxoethyl]piperazin-1-yl}pyridazine] has a pKi [1] of over 6.00.
Compound `CCCN(CC1CC1)C1CCN(CC(=O)N2CCN(C3CCC3)CC2)CC1` [Compound 431, 1-[2-(4-cyclobutylpiperazin-1-yl)-2-oxoethyl]-N-(cyclopropylmethyl)-N-propylpiperidin-4-amine] has a pKi [3] of over 6.00.
For `O=C(CN1CCN(c2ccc(C(=O)N3CCCCCC3)cc2)CC1)N1CCN(C2CCC2)CC1` [Compound 317, 1-(4-{4-[2-(4-cyclobutylpiperazin-1-yl)-2-oxoethyl]piperazin-1-yl}benzoyl)azepane], the pKi [3] was over 6.00.
In the case of `Cc1cc(C)cc(C(=O)NC2CCN(CC(=O)N3CCN(C4CCC4)CC3)CC2)c1` [Compound 1211, N-{1-[2-(4-cyclobutylpiperazin-1-yl)-2-oxoethyl]piperidin-4-yl}-3,5-dimethylbenzamide], the pKi [4] was over 6.00.
`COC[C@H]1CCCN1C(=O)c1cccc(N2CCN(CC(=O)N3CCN(C4CCC4)CC3)CC2)c1` [Compound 744, 1-cyclobutyl-4-{[4-(3-{[(2R)-2-(methoxymethyl)pyrrolidin-1-yl]car-bonyl}phenyl)piperazin-1-yl]acetyl}piperazine] was tested, and the pKi [5] was over 6.00.
With `COc1cc(N2CCN(CC(=O)N3CCN(C4CCCC4)CC3)CC2)ccc1Br` [Compound 334, 1-(4-bromo-3-methoxyphenyl)-4-[2-(4-cyclopentylpiperazin-1-yl)-2-oxoethyl]piperazine] the pKi [3] was over 6.00.
In the case of `CC(C)N1CCN(C(=O)CN2CCN(c3ccc(Br)cc3)CC2)CC1` [Compound 339, 1-(4-bromophenyl)-4-[2-(4-isopropylpiperazin-1-yl)-2-oxoethyl]piperazine], the pKi [3] was over 6.00.
`O=C(CN1CCN(c2ccc(N3CCCC3=O)cc2)CC1)N1CCN(C2CCC2)CC1` [Compound 320, 1-(4-{4-[2-(4-cyclobutylpiperazin-1-yl)-2-oxoethyl]piperazin-1-yl}phenyl)pyrrolidin-2-one] showed a pKi [3] of over 6.00.
Compound `O=C(CN1CCC(N2CCCCCC2)CC1)N1CCN(C2CCC2)CC1` [Compound 479, 1-{1-[2-(4-cyclobutylpiperazin-1-yl)-2-oxoethyl]piperidin-4-yl}azepane] has a pKi [6] of over 6.00.
`O=C(CN1CCN(c2ccc(-c3cc(C(F)(F)F)cc(C(F)(F)F)c3)cc2)CC1)N1CCN(C2CCC2)CC1` [Compound 457, 1-[3′,5′-bis(trifluoromethyl)biphenyl-4-yl]-4-[2-(4-cyclobutylpiperazin-1-yl)-2-oxoethyl]piperazine] was tested, and the pKi [6] was over 6.00.
Compound `O=C(CN1CCN(c2cnc(-c3ccc(Cl)c(Cl)c3)cn2)CC1)N1CCN(C2CCC2)CC1` [Compound 964, 2-{4-[2-(4-cyclobutylpiperazin-1-yl)-2-oxoethyl]piperazin-1-yl}-5-(3,4-dichlorophenyl)pyrazine] has a pKi [1] of over 6.00.
“N-{1-[2-(4- cyclobutylpiperazin-1-yl)- 2-oxoethyl]piperldin-4-yl}- 2-naphthamide [Compound 1207]” showed a pKi [4] of over 6.00.
Work on `Cc1ccc(N2CCN(CC(=O)N3CCN(C4CCCCC4)CC3)CC2)cc1C` [Compound 817, 1-cyclohexyl-4-{[4-(3,4-dimethylphenyl)piperazin-1-yl]acetyl}piperazine] yielded a pKi [2] of over 6.00.
`O=C(CN1CCN(c2cc(Cl)cc(Cl)c2)CC1)N1CCN(C2CCCC2)CC1` [Compound 838, 1-cyclopentyl-4-{[4-(3,5-dichlorophenyl)piperazin-1-yl]acetyl}piperazine] showed a pKi [2] of over 6.00.
With `Cc1cc(C)cc(-c2ccc(N3CCN(CC(=O)N4CCN(C5CCC5)CC4)CC3)nn2)c1` [Compound 1016, 3-{4-[2-(4-cyclobutylpiperazin-1-yl)-2-oxoethyl]piperazin-1-yl}-6-(3,5-dimethylphenyl) pyridazine] the pKi [1] was over 6.00.
`O=C(CN1CCN(c2ccc(C(=O)N3CC[C@H]4CCCC[C@@H]4C3)cc2)CC1)N1CCN(C2CCC2)CC1` [Compound 253, (4aR,8aS)-2-(4-{4-[2-(4-cyclobutylpiperazin-1-yl)-2-oxoethyl]piperazin-1-yl}benzoyl) decahydroisoquinoline] showed a pKi [3] of over 6.00.
`CCOc1cccc(C(=O)NC2CCN(CC(=O)N3CCN(C4CCC4)CC3)C2)c1` (stereo not shown) [Compound 1239, N-{1-[2-(4-cyclobutylpiperazin-1-yl)-2-oxoethyl]pyrrolidin-3-yl}-3-ethoxybenzamide] was tested, and the pKi [4] was over 6.00.
Compound `Cc1ccc(-c2ccc(N3CCN(CC(=O)N4CCN(C5CCC5)CC4)CC3)cc2)cc1C` [Compound 735, 1-cyclobutyl-4-{[4-(3′,4′-dimethylbiphenyl-4-yl)piperazin-1-yl]acetyl}piperazine] has a pKi [5] of over 6.00.
Compound `O=C(CN1CCN(c2cccc(C(=O)N3CC[C@H]4CCCC[C@@H]4C3)c2)CC1)N1CCN(C2CCC2)CC1` [Compound 252, (4aR,8aS)-2-(3-{4-[2-(4-cyclobutylpiperazin-1-yl)-2-oxoethyl]piperazin-1-yl}benzoyl) decahydroisoquinoline] has a pKi [3] of over 6.00.
Work on `O=C(CN1CCN(c2ccc(C(=O)N3CCC(F)CC3)cc2)CC1)N1CCN(C2CCC2)CC1` [Compound 648, 1-cyclobutyl-4-[(4-{4-[(4-fluoropiperidin-1-yl)carbonyl]phenyl}piperazin-1-yl)acetyl]piperazine] yielded a pKi [5] of over 6.00.
`O=C(CN1CCN(c2cccc(C(=O)N3CCCC3)c2)CC1)N1CCN(C2CCC2)CC1` [Compound 586, 1-cyclobutyl-4-({4-[3-(pyrrolidin-1-ylcarbonyl)phenyl]piperazin-1-yl}acetyl)piperazine] showed a pKi [5] of over 6.00.
`CC(C)CN1CCN(C(=O)CN2CCN(c3ccc4c(c3)COC4=O)CC2)CC1` [Compound 1161, 5-{4-[2-(4-isobutylpiperazin-1-yl)-2-oxoethyl]piperazin-1-yl}-2-benzofuran-1(3H)-one] gave a pKi [4] of over 6.00.
`Cc1cccc(C)c1N1CCN(CC(=O)N2CCN(C(C)C)CC2)CC1` [Compound 268, 1-(2,6-dimethylphenyl)-4-[2-(4-isopropylpiperazin-1-yl)-2-oxoethyl]piperazine] showed a pKi [3] of over 6.00.
`O=C(NC1CCCC1)c1ccc(N2CCN(CC(=O)N3CCN(C4CCC4)CC3)CC2)nn1` [Compound 1166, 6-{4-[2-(4-cyclobutylpiperazin-1-yl)-2-oxoethyl]piperazin-1-yl}-N-cyclopentylpyridazine-3-carboxamide] gave a pKi [4] of over 6.00.

Reference: US7851474B2, “Dipiperazinyl ketones and related analogues” (Neurogen Corporation, priority 2005, dated 2010)
